Where two headings read alike, the source gives them in different places.
What was measured:
[1] = target: T1, hEP4 receptors (Homo sapiens, UniProt P35408); assay: [3H]-Prostaglandin E2 membrane binding assay
T1 construct: membrane fraction used
Description: (§1) The cDNA clone of human EP4 receptor (NM_000958.2) was obtained from InvitrogenTM: Ultimate™ ORF Clone Collection - Clone ID IOH46525. The coding sequence was subcloned in expression vector pcDNATM6.2/V5-DEST by Gateway technology (InvitrogenTM). Human embryonic kidney cells (HEK-293) were stably transfected with expression vector for human EP4 receptor in according to the method described in FuGENE®6 Transfection Reagent's manual (Roche Applied Science®).
(§2) The EP4 transfected cells were grown in Dulbecco's modified Eagle's medium containing 10% fetal bovine serum and 10 µg/ml Blasticidin S HCl (selection medium) at 37°C in a humidified atmosphere of 5% CO2 in air. For the membrane preparation, cells in flask were harvested by hypotonical/mechanical lysis with chilled (4°C) TE buffer (5mM TRIS, 5mM ethylenediamine tetra-acetic acid (EDTA), pH 7.4). Cells were detached and lysed with 10ml of hypotonic lysis buffer and by scraping. The cell lysate was vortexed for 30 sec and centrifuged at 40000x g at 4°C for 22min.
The membrane pellet was resuspended in the same buffer (5mM TRIS, 5mM ethylenediamine tetra-acetic acid (EDTA), pH 7.4), and protein concentration was determined by Bradford method (Bio-Bad® assay). This membrane preparation was stored at -80°C freezer until use for binding assay. ([^3H]-PGE2) membranes binding assays toward hEP4 receptors (human EP4/HEK293 transfectant, see above) and hEP2 receptors (human EP2/HEK293 transfectant, purchased from PerkinElmer Inc) were performed in 10 mM MES-KOH buffer pH6, containing 10 mM MgCl2 and 1 mM CaCl2 for EP4 binding assay or 50 mM Tris-Cl, BSA 0.5% for EP2 binding assay (according to supplier indication) . Ten microgram of protein from membrane fractions were incubated in a total volume of 0.1ml (EP4) or 0.2ml (EP2) with 1nM (EP4) or 3nM (EP2) [^3H]-PGE2 (PerkinElmer Inc, 171Ci/mmol). In both assays to determine the total binding or non specific binding, 1% DMSO or 1µM prostaglandin E2 (EP4) or 100 µM (EP2) were added to reaction mixtures, respectively. Incubation was conducted in a polypropylene 96 multiwell for 90 min (EP4) or 60 min (EP2) at room temperature prior to separation of the bound and free radioligand by vacuum manifold rapid filtration on glass fiber filters (Unifilter GFB96, PerkinElmer Inc) pre-soaked in 0.3% polyethyleneimine. Filters were washed with ice cold buffer pH 7.4 (50mM HEPES, NaCl 500mM, BSA 0.1% for EP4 binding assay or 50mM Tris-Cl for EP2 binding assays) and the residual [^3H]-PGE2 binding determined by solid scintillation counter (TopCount , PerkinElmer Inc).
The affinity (Ki) of each compound was calculated according to the Cheng-Prousoff equation: Ki = IC50/(1+([C]/Kd)). Results were expressed as pKi (- log10 Ki (M)

[2] = target: T1, hEP4 receptors; assay: cAMP assay (AlphaScreen) on human EP4 membrane of transfected cells, antagonism of PGE2; assay type: biochemical; conditions: HEK293 cell membrane stimulated with PGE2 3nM; read-out: functional IC50
Description: as §1, §2
The assay is based on the competition between endogenous cAMP and exogenously added biotinylated cAMP. The capture of cAMP is achieved by using a specific antibody conjugated to Donor beads. Cell membranes prepared as described above, were resuspended in 1 ml stimulation buffer (HBSS 1X + BSA 0.1% + IBMX 0.5mM + HEPES 5mM + MgCl2 10mM + GTP 1 nM + GDP 10µM + ATP 100µM - pH 7.4). Cell membranes were dispensed into white 384-well microplates at final concentration of 1µg/well and used for the determination of cAMP with the alphascreen cAMP functional assay (EnVision - PerkinElmer). Cell membrane/anti-cAMP Acceptor beads mix (5 µl) and a mixture of analysed compounds (dissolved in 100% DMSO to a final maximal concentration of 0.01% DMSO)/PGE2 (5 µl) were incubated at room temperature (22-23°C) for 30 min in the dark. The Biotinylated-cAMP and donor beads (15 µl) were dispensed into each well to start the competition reaction. After 1 h incubation RT (22-23°C) in the dark the plate was read using EnVision platform to determine the cAMP level (excitation: 680nm; emission:520,620nm). In each experiment:
cAMP standard curve (concentration range from 1x10-6 to 1x10-11 M in log intervals) with a negative control (no cAMP)
a positive control: forskolin 10µM
Antagonism studies were performed stimulating HEK293 cell membrane with PGE2 3nM. The AlphaScreen signal is plotted as a function of log concentration of cAMP and functional IC50 is determined. IC50 value is calculated by linear regression.

[3] = Pharmacokinetics after intravenous and oral treatment, plasma LC-MS/MS; assay type: in vivo, male Han Wistar rats; conditions: rat; for AUC(0-t) / AUC(0-inf) / half-life / clearance / Vd / Cmax / Tmax / bioavailability: male, Han Wistar, plasma; for AUC(0-inf): extrapolated to infinity; for half-life / clearance / Vd: extrapolated, indicative only; for clearance: read-out: CLp* (converted); for Vd: read-out: Vss*
Description: The pharmacokinetics of compounds E7, E17 and E18, were studied in male Han Wistar rats. The rats were treated intravenously and orally (n=3 for each dose route) with compounds formulated as solutions. The rats were fitted with a jugular cannula for serial sampling. A full profile was acquired from each rat. Plasma extracts were quantitatively analyzed using a specific and sensitive LC-MS/MS bioanalytical method. Inter-individual variations between the three rats in each group were limited (CV for pharmacokinetic parameters was below 50%). […] A range of clearance values were obtained for the different structure, ranging from low to moderate values (from 43 to 250 ml/h). After oral administration, absorption was quite fast with a clear maximum concentration reached by the first sampling time-point of 15 minutes for all compounds.

[4] = read-out: Binding pKi (converted)
[5] = human EP4/HEK293 transfectant membranes, 1nM [3H]-PGE2, Ki from IC50 by Cheng-Prousoff, pKi = -log10 Ki (M)

T1 sequence (P35408 whole entry): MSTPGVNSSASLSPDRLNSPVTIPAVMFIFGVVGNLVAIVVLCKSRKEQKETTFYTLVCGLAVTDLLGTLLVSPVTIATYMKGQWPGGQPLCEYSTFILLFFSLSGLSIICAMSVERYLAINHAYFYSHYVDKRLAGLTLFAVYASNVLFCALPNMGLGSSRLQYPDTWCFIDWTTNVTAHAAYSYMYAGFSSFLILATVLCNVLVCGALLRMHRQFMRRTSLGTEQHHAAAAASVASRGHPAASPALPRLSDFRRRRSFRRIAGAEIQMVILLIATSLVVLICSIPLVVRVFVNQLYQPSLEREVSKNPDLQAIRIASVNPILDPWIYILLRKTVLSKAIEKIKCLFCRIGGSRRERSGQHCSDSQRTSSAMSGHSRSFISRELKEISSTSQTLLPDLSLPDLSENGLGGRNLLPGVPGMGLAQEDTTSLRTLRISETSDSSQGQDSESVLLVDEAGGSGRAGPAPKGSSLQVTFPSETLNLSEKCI

O=C(O)c1ccc(C2(NC(=O)C3CC4(CCN3Cc3ccc(C(F)(F)F)cc3)CC4)CC2)cc1 (single isomer, unassigned) [Example E7, 4-(1-(6-(4-(trifluoromethyl)benzyl)-6-azaspiro[2.5]octane-5-carboxamido)cyclopropyl)benzoic acid]
Ki [1, 4]: 3.16e-08 M | IC50 [2]: 22 nM | AUC(0-t) ([3]; iv, 5 mg/kg): 29200 ng·h/mL | AUC(0-inf) ([3]; iv, 5 mg/kg): 31800 ng·h/mL | half-life ([3]; iv, 5 mg/kg): 7.4 h | clearance ([3]; iv, 5 mg/kg): 0.717 mL/min | Vd ([3]; iv, 5 mg/kg): 0.395 L | AUC(0-t) ([3]; po, 5 mg/kg): 22900 ng·h/mL | Cmax ([3]; po, 5 mg/kg): 5330 ng/mL | Tmax ([3]; po, 5 mg/kg): 0.5 h | bioavailability ([3]; po, 5 mg/kg, absolute oral bioavailability): 78% | AUC(0-inf) ([3]; po, 5 mg/kg): 24900 ng·h/mL | half-life ([3]; po, 5 mg/kg): 6.7 h | Tlast ([3]; iv, 5 mg/kg): 24 h | Tlast ([3]; po, 5 mg/kg): 24 h

O=C(O)c1ccc(C2(NC(=O)C3CC4(CCN3Cc3cccc(C(F)(F)F)c3)CC4)CC2)cc1 (single isomer, unassigned) [Example E9, 4-(1-(6-(3-(trifluoromethyl)benzyl)-6-azaspiro[2.5]octane-5-carboxamido)cyclopropyl)benzoic acid]
Ki [1, 5]: 6.31e-09 M | IC50 [2]: 4 nM

C[C@H](NC(=O)C1CC2(CCN1Cc1ccc(C(F)(F)F)cc1)CC2)c1ccc(C(=O)O)cc1 (single isomer, unassigned) [Example E10]
Ki [1, 4]: 3.98e-08 M | IC50 [2]: 29 nM

C[C@H](NC(=O)C1CC(C)(C)CCN1Cc1ccc(C(F)(F)F)cc1)c1ccc(C(=O)O)cc1 (single isomer, unassigned) [Example E13]
Ki [1, 5]: 1.26e-08 M | IC50 [2]: 8 nM

O=C(O)c1ccc(C2(NC(=O)C3CC(F)(F)CCN3Cc3ccc(C(F)(F)F)cc3)CC2)cc1 (single isomer, unassigned) [Example E18, 4-(1-(4,4-difluoro-1-(4-(trifluoromethyl)benzyl)piperidine-2-carboxamido)cyclopropyl)benzoic acid]
Ki [1, 4]: 6.31e-09 M | IC50 [2]: 11 nM | AUC(0-t) ([3]; iv, 1 mg/kg): 1260 ng·h/mL | AUC(0-inf) ([3]; iv, 1 mg/kg): 1390 ng·h/mL | half-life ([3]; iv, 1 mg/kg): 9.3 h | clearance ([3]; iv, 1 mg/kg): 3.17 mL/min | Vd ([3]; iv, 1 mg/kg): 1.7 L | AUC(0-t) ([3]; po, 1 mg/kg): 1170 ng·h/mL | Cmax ([3]; po, 1 mg/kg): 556 ng/mL | Tmax ([3]; po, 1 mg/kg): 0.5 h | AUC(0-inf) ([3]; po, 1 mg/kg): 1200 ng·h/mL | half-life ([3]; po, 1 mg/kg): 5.1 h | bioavailability ([3]; po, 1 mg/kg): 93% | Tlast ([3]; iv, 1 mg/kg): 24 h | Tlast ([3]; po, 1 mg/kg): 24 h

O=C(O)c1ccc(C2(NC(=O)C3CC4CC4CN3Cc3ccc(C(F)(F)F)cc3)CC2)cc1 (single isomer, unassigned) [Example E23, 4-(1-(3-(4-(trifluoromethyl)benzyl)-3-azabicyclo[4.1.0]heptane-4-carboxamido)cyclopropyl)benzoic acid]
Ki [1, 4]: 1e-08 M | IC50 [2]: 11.5 nM

O=C(O)c1ccc(C2(NC(=O)[C@H]3CCCCN3Cc3ccc(C(F)(F)F)cc3)CC2)cc1 [Example E4, lithium (R)-4-(1-(1-(4-(trifluoromethyl)benzyl)piperidine-2-carboxamido)cyclopropyl)benzoate]
IC50 [2]: 32 nM

C[C@H](NC(=O)[C@H]1CC(F)(F)CCN1Cc1ccc(C(F)(F)F)cc1)c1ccc(C(=O)O)cc1 [Example E16, 4-((S)-1-((R)-4,4-difluoro-1-(4-(trifluoromethyl)benzyl)piperidine-2-carboxamido)ethyl)benzoic acid]
Ki [1, 5]: 2e-08 M | IC50 [2]: 9 nM

O=C(O)c1ccc(C2(NC(=O)[C@H]3CCC4CC4N3Cc3ccc(C(F)(F)F)cc3)CC2)cc1 (stereo partly drawn) [Example E25, 4-(1-((3R)-2-(4-(trifluoromethyl)benzyl)-2-azabicyclo[4.1.0]heptane-3-carboxamido)cyclopropyl)benzoic acid]
Ki [1, 4]: 3.16e-09 M | IC50 [2]: 43 nM

C[C@H](NC(=O)[C@H]1CCC2CC2N1Cc1ccc(C(F)(F)F)cc1)c1ccc(C(=O)O)cc1 (stereo partly drawn) [Example E26, 4-((1S)-1-((3R)-2-(4-(trifluoromethyl)benzyl)-2-azabicyclo[4.1.0]heptane-3-carboxamido)ethyl)benzoic acid]
Ki [1, 4]: 1.58e-09 M | IC50 [2]: 42 nM

C[C@H](NC(=O)[C@H]1CCCN1Cc1ccc(C(F)(F)F)cc1)c1ccc(C(=O)O)cc1 [Example E27, lithium 4-((S)-1-((R)-1-(4-(trifluoromethyl)benzyl)pyrrolidine-2-carboxamido)ethyl)benzoate]
IC50 [2]: 50 nM

O=C(O)c1ccc(C2(NC(=O)[C@H]3C[C@H]4C[C@H]4N3Cc3cccc(C(F)(F)F)c3)CC2)cc1 [Example E29, 4-(1-((1R,3R,5R)-2-(3-(trifluoromethyl)benzyl)-2-azabicyclo[3.1.0]hexane-3-carboxamido)cyclopropyl)benzoic acid]
Ki [1, 4]: 2.51e-09 M | IC50 [2]: 16 nM

O=C(O)c1ccc(C2(NC(=O)[C@H]3C[C@H]4C[C@H]4N3Cc3ccc(C(F)(F)F)cc3)CC2)cc1 [Example E30, 4-(1-((1R,3R,5R)-2-(4-(trifluoromethyl)benzyl)-2-azabicyclo[3.1.0]hexane-3-carboxamido)cyclopropyl)benzoic acid]
Ki [1, 5]: 5.01e-09 M | IC50 [2]: 21 nM
